The numbers were not newly measured in article PMC5555364 (ACS chemical neuroscience, 2016), which cites them from elsewhere.

Data set [1] relates to single-point mutants of rNaV1.4. Conditions: all amino acid mutations of Figure 5 except tyrosine 1586.
The test system of data set [2] is NaV. Particulars: hyperpolarizing.

In the case of Batrachotoxin [BTX], in data set [1], the “effect of mutations on BTX action on channel function” value is “abrogate the effect of BTX”. Moreover, the “shift of voltage-dependence of channel activation” value in data set [2] is given as −45 mV.
